Results as given in ChEMBL document CHEMBL1148411 (J Med Chem, 2004).
Numbered stars: 1 amine (or outer) side, 2 acyl side, 3 side chain; on linkers, the order of the positions; unused ones are H or OH. Bridge positions count the residues as written; N and C are the ends. Square brackets hold non-standard residues; d marks the D form. Peptide text beside a SMILES is read from it. Phe(4-NH2) = Nc1ccc(C[C@H](N)C(=O)O)cc1; CH2 = C([*:1])[*:2]

Biological target: T1, Angiotensin II receptor (AT-1) type-1 (Rattus norvegicus, UniProt P29089+P25095)
T1 sequence (P29089 whole entry): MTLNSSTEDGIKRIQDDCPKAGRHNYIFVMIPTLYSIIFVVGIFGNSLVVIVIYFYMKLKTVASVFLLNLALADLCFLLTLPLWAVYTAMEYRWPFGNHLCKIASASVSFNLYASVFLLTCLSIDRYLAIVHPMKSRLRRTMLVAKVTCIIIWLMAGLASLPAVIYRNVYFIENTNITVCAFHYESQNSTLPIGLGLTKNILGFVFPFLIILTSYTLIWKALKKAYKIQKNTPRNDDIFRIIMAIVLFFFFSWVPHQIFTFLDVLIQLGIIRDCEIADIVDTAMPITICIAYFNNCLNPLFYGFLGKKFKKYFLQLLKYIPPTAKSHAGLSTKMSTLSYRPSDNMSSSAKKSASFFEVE
T1 sequence (P25095 whole entry): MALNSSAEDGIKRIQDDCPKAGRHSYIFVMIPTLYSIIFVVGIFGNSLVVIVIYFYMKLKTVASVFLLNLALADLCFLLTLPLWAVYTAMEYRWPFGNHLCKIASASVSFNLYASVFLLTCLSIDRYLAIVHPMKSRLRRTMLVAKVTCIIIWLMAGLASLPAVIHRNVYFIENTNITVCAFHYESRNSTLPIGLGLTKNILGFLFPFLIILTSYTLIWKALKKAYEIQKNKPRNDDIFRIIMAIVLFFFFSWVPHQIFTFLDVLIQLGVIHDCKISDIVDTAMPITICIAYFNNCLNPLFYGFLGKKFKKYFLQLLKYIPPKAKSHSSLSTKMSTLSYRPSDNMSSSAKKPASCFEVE
Experiment: Binding affinity for angiotensin II receptor type 1 using [125I]- Ang II in rat liver membranes
Type: cell membranes, Membrane

With `N=C(N)NCCC[C@H](NC(=O)[C@@H](N)CC(=O)O)C(=O)N[C@H]1CSCSC[C@@H](C(=O)N[C@@H](Cc2cnc[nH]2)C(=O)N2CCC[C@H]2C(=O)N[C@@H](Cc2ccccc2)C(=O)O)NC(=O)[C@H](Cc2ccc(O)cc2)NC1=O` (H-DRCYCHPF-OH; linker 3-5 via CH2) as the molecule, how does the Ki read?
Its Ki is 0.044 µM.

With `CC[C@H](C)[C@H](NC(=O)[C@H](Cc1ccc(O)cc1)NC(=O)[C@@H](NC(=O)[C@H](CCCN=C(N)N)NC(=O)[C@@H](N)CC(=O)O)C(C)C)C(=O)N[C@@H](Cc1ccc(N)cc1)C(=O)N1CCC[C@H]1C(=O)N[C@@H](Cc1ccccc1)C(=O)O` (H-DRVYI[Phe(4-NH2)]PF-OH) as the molecule, how does the Ki read?
Its Ki is greater than 10 µM.

`CC(C)[C@H](NC(=O)[C@H](CCCN=C(N)N)NC(=O)[C@@H](N)CC(=O)O)C(=O)N[C@@H](Cc1ccc(O)cc1)C(=O)Nc1ccc2c(c1)CN(CC(=O)N[C@@H](Cc1ccccc1)C(=O)O)C(=O)[C@H](Cc1c[nH]cn1)N2` was tested. Which Ki did it give?
The Ki was greater than 10 µM.

`CC[C@@H](C)[C@@H](C(=O)N[C@@H](Cc1c[nH]cn1)C(=O)N1CCC[C@H]1C(=O)N[C@@H](Cc1ccccc1)C(=O)O)N1Cc2cc(NC(=O)[C@H](CCCN=C(N)N)NC(=O)[C@@H](N)CC(=O)O)ccc2[C@@H](Cc2ccc(O)cc2)C1=O` (single isomer, unassigned; diastereomer a) was tested. Which Ki did it give?
The Ki was greater than 10 µM.

How did the Ki turn out when `CC(C)[C@H](NC(=O)[C@H](C)NC(=O)[C@@H](N)CC(=O)O)C(=O)Nc1ccc2c(c1)CN(CC(=O)N[C@@H](Cc1c[nH]cn1)C(=O)N1CCC[C@H]1C(=O)N[C@@H](Cc1ccccc1)C(=O)O)C(=O)[C@H](Cc1ccc(O)cc1)N2` was run?
The Ki was greater than 10 µM.
